Experiments:
CMT1A = settings: six clinical trials, 1- or 2-year AA treatment; cited from earlier work
[1] = system: patient suffering from ALS; test: Treatment of a patient suffering from ALS with high doses biotin (case report); format: in vivo, human
Experimental: Treatment with biotin 100 mg three times a day was started the 11 Sep. 2015. […] All these medications were introduced at least 6 months before.

[2] = system: patients with demyelinating Charcot Marie Tooth (CMT) disease; test: Treatment of patients with demyelinating Charcot Marie Tooth disease, 6 minutes walking test; format: in vivo, human
Experimental: Two patients with demyelinating Charcot Marie Tooth (CMT) disease were treated with biotin 300 mg/day. • A patient with CMT1a was treated with high doses of biotin (100 mg three times a day). No other treatment was introduced. The patient was followed clinically using a 6 minutes walking test. After 9 months of treatment the maximum walking distance was improved by 100 meters. • A person with CMT1E (a rare form of demyelinating CMT with hearing loss) was treated with high doses biotin (100 mg three times a day). No other drug was introduced.

[3] = system: patients diagnosed with Neuromyelitis optica; test: Treatment of patients with neuromyelitis optica, visual acuity and motor strength; format: in vivo, human; settings: for visual acuity right: 0/10 at onset; for visual acuity left: 9/10 at onset
Text: Biotin can be used for treatment of neuromyelitis optica, using the same kind of regimen as disclosed in Examples 1 and 4.
Endpoint would be partial recovery and improvement of vision or of motor strength. Three patients will be treated and assessed every 6 months with measures of visual acuity (VA) and clinical examination including motor strength testing. Results will be considered positive in case of improvement of VA of at least 5 letters associated with any improvement of motor strength.
Results: • Patient 1: this person was diagnosed with Neuromyelitis optica. First episode of right optic neuritis occurred in 2006. This was followed by an attack of tetraplegia in 2009 with positive anti-NMO antibodies. […] The patient could not walk. Treatment with biotin (100 mg three times a day) was started. […] Treatment with biotin (100 mg three times a day) was introduced. At that time the patient was treated with monthly perfusions of cyclophosphamide. Visual acuity was 0/10 right and 9/10 left. After 4 months of treatment with biotin, visual acuity was 1/10 right and 6/10 left. After 18 months of treatment, visual acuity was 2/10 right and 8/10 left. It was concluded that treatment with biotin improved the right visual acuity.

[4] = in vivo; cited from earlier work
[5] = system: IgM anti-MAG demyelinating neuropathy; settings: controlled trial (Léger et al, 2013); cited from earlier work
[6] = biotin 100 mg three times a day

**Q.** For `O=C1O[C@H]([C@@H](O)CO)C(O)=C1O` [Ascorbic acid], which clinical benefit (CMT1A) is on record?
**A.** Its clinical benefit is “no clinical benefit”.

**Q.** For `O=C(O)CCCC[C@@H]1SC[C@@H]2NC(=O)N[C@@H]21` [biotin, Biotin], which “time the patient could switch off the medical ventilator” value ([1]; after 6 months of treatment, dependent on ventilator 24 hours a day at beginning) is on record?
**A.** The value was 4 hours a day.

**Q.** What about the disability [1, 6] of the same molecule?
**A.** The disability was “some stabilization of its disability”.

**Q.** What about the “weight of the patient” value [1, 6] of the same molecule?
**A.** Its value is “slightly increased”.

**Q.** What about the “muscle atrophy in lower extremities” value ([1]; biotin 100 mg three times a day, after 3 and 6 months, better exercise tolerance during physical therapy) of the same molecule?
**A.** Its value is “some improvement”.

**Q.** What about the “limbs weakness and swallowing” value ([1]; biotin 100 mg three times a day, after 3 and 6 months, concomitant riluzole and other medications) of the same molecule?
**A.** The value was “stabilization”.

**Q.** What about the “6 minutes walk test” value ([2]; CMT1E patient, after 9 months, 396 meters at onset) of the same molecule?
**A.** Its value is 490 meters.

**Q.** And the “6 minutes walk test” value ([2]; CMT1E patient, after 12 months, 396 meters at onset)?
**A.** The value was 480 meters.

**Q.** What about the “6 minutes walk test” value ([2]; CMT1E patient, after 18 months, 396 meters at onset) of the same molecule?
**A.** Its value is 483 meters.

**Q.** What about the “6 minutes walk test” value ([2]; CMT1E patient, after 24 months, 396 meters at onset) of the same molecule?
**A.** Its value is 580 meters.

**Q.** What about the “improvement of maximum walking distance, 6 minutes walking test” value ([2]; patient with CMT1a, biotin 100 mg three times a day, after 9 months) of the same molecule?
**A.** Its value is 100 meters.

**Q.** What about the “6 minutes walk test” value ([2]; person with CMT1E, biotin 100 mg three times a day, after 3 months, 396 meters at treatment's onset) of the same molecule?
**A.** The value was 515 meters.

**Q.** And the “strength in the right lower limb” value ([3]; NMO Patient 1, after 9 months)?
**A.** Its value is “better strength”.

**Q.** And the walking ability ([3]; NMO Patient 1, after 24 months, could not walk at onset)?
**A.** The walking ability was “walk with two aids and the help of the physical therapist”.

**Q.** What about the tolerability of treatment ([3]; NMO Patient 1, biotin 100 mg three times a day, 24 months) of the same molecule?
**A.** The tolerability of treatment was “very well tolerated”.

**Q.** And the right hand movements ([3]; NMO Patient 1, biotin 100 mg three times a day, after three months, confirmed after 9 months)?
**A.** The right hand movements was “some improvement”.

**Q.** What about the visual acuity right ([3]; NMO Patient 2, after 4 months of biotin 100 mg three times a day, monthly cyclophosphamide) of the same molecule?
**A.** Its visual acuity right is 1/10.

**Q.** And the visual acuity left ([3]; NMO Patient 2, after 4 months)?
**A.** The visual acuity left was 6/10.

**Q.** And the visual acuity right ([3]; NMO Patient 2, after 18 months)?
**A.** Its visual acuity right is 2/10.

**Q.** What about the visual acuity left ([3]; NMO Patient 2, after 18 months) of the same molecule?
**A.** The visual acuity left was 8/10.

**Q.** And the plasma half life [4]?
**A.** Its plasma half life is “about 2 hours”.

**Q.** Which patients condition [5] does the source give for Rituximab: monoclonal antibody here?
**A.** Its patients condition is “didn't really improve”.
